Reference: patent US20240197628A1, “INHALABLE DRY POWDER FORMULATIONS COMPRISING ANGIOGENESIS INHIBITORS” (Lonza Bend Inc., priority 2020, published 2024)

Tests used:
[1] = solution prepared 18 hours before spray drying; cited from earlier work
NSCLC cell line Calu-3 = test: Orthotopic nude rat model for lung cancer, in vivo efficacy study; details: each with cisplatin IP 3 mg/kg, 1.5 mg/kg deposited INH vs 15 mg/kg IP, 8 weeks
Method: NSCLC cell line Calu-3 was instilled into the lungs of X-irradiated rats by an intratracheal route, targeting 1.5×10^7 cells per installation. For the first four weeks of the study, no treatment was administered, allowing growth of the tumor cells. Inhaled bevacizumab SDD was evaluated as a primary treatment as well as a maintenance therapy.
Cisplatin was administered by IP at 3 mg/kg. Powder was aerosolized using a rotating brush generator and delivered to the rats passively through nasal inhalation. […] Groups 1-4 were evaluated for primary efficacy after 8 weeks with lung weight as the end point. Groups 5-7 were evaluated for maintenance efficacy after 12 weeks with lung weight and survival as the end point.

Q: Which “stability in aqueous solution” value [1] does the source give for `N.N.[Cl][Pt][Cl]` [cisplatin] here?
A: converts to transplatin

Q: With Bevacizumab [bevacizumab control] as the molecule, how does the “tumor burden, inhaled vs IP bevacizumab” value (NSCLC cell line Calu-3; listed as IP bevacizumab) read?
A: indistinguishable

Q: What about the “tumor burden, inhaled vs IP bevacizumab” value (NSCLC cell line Calu-3; listed as bevacizumab delivered via IP injection) of the same molecule?
A: equal
